Where a name gives a salt, the structure may show the parent alone.

Usually IC50 stands for the concentration needed to halve the response being measured. Higher therefore signals lower potency.

Chain of human NK1R (P25103 whole entry): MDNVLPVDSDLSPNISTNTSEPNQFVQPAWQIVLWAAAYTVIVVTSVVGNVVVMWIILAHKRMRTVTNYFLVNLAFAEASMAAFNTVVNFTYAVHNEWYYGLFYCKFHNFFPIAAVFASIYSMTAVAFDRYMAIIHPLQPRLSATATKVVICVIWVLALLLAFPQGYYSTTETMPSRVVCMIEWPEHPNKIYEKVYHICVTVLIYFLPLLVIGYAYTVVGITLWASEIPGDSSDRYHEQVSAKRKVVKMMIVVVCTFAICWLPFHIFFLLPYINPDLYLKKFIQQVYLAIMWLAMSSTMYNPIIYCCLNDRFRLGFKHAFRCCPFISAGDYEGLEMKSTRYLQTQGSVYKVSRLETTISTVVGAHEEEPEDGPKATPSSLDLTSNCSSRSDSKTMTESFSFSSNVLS

The target in the first experiment is human NK1R (Homo sapiens, UniProt P25103). Put plainly: biochemical. The format is binding. The conditions noted are these: 1 h; @ 0.3 μM; read-out: Substance P antagonism (%). The method, then:
To express the cloned human neurokinin-1-receotor (NK1R) transiently in COS, the cDNA for the human NK1R was cloned into the expression vector pCDM9 which was derived from pCDM8 (INVITROGEN) by inserting the ampicillin resistance gene (nucleotide 1973 to 2964 from BLUESCRIPT SK+ (trademark, […], La Jolla, Calif., U.S.A.)) into the Sac II site. Transfection of 20 ug of the plasmid DNA into 10 million COS cells was achieved by electroporation in 800 μl of transfection buffer (135 mM NaCl, 1.2 mM CaCl2, 1.2 mM MgCl2, 2.4 mM K2 HPO4, 0.6 mM KH2 PO4, 10 mM glucose, 10 mM N-2-hydroxyethyl-piperazine-N'-2-ethane sulphonic acid (HEPES) pH 7.4) at 260 V and 950 μF using the IBI GENEZAPPER (trademark IBI, New Haven, Conn., U.S.A.). The cells were incubated in 10% fetal calf serum, 2 mM glutamine, 100 U/ml penicillin-streptomycin, and 90% DMEM media (GIBCO, Grand Island, N.Y., U.S.A.) in 5% CO2 at 37° C. for three days before the binding assay.
To establish a stable cell line expressing cloned human NK1R, the cDNA was subcloned into the vector pRcCMV (INVITROGEN). Transfection of 20 ug of the plasmid DNA into CHO cells was achieved by electroporation in 800 μl of transfection buffer supplemented with 0.625 mg/ml Herring sperm DNA at 300 V and 950 μF using the IBI GENEZAPPER (IBI). The transfected cells were incubated. in CHO media [10% fetal calf serum, 100 U/ml penicillin-streptomycin, 2 mM glutamine, 1/500 hypoxanthinethymidine (ATCC), 90% IMDM media (JRH BIOSCIENCES, Lenexa, Kans., U.S.A.), 0.7 mg/ml G418 (GIBCO)] in 5% CO2 at 37° C. until colonies were visible. Each colony was separated and propagated. The cell clone with the highest number of human NK1R was selected for subsequent applications such as drug screening.
The binding assay of human NK1R expressed in either COS or CHO cells is based on the use of ^125 I-substance P (^125 I-SP, from DU PONT, Boston, Mass.) as a radioactively labeled ligand which competes with unlabeled substance P or any other ligand for binding to the human NK1R. […] The tubes were incubated at 4° C. or at room temperature for 1 hour with gentle shaking. The bound radioactivity was separated from unbound radioactivity by GF/C filter (BRANDEL, Gaithersburg, Md.) which was prewetted with 0.1% polyethylenimine. The filter was washed with 3 ml of wash buffer (50 mM Tris pH 7.5, 5 mM MnCl2, 150 mM NaCl) three times and its radioactivity was determined by gamma counter.
Consider `CC(c1cccc(Cl)c1)C(N)COCc1cc(C(F)(F)F)cc(C(F)(F)F)c1` (single isomer, unassigned) [71 (diastereomer B), 2-Amino-1-((3,5-bis(trifluoromethyl)phenyl)methyloxy)-3-(3-chlorophenyl)-butane], for which the inhibition at 0.3 µM is 42%.

The experiment is the same for the next values; noted with them: 1 h; @ 10 μM; read-out: Substance P antagonism (%).
Consider `COc1ccccc1CNC(=O)C(NC(=O)OC(C)(C)C)C(c1ccccc1)c1ccccc1` (centres unmarked) [Example 3, 2-t-Butoxycarbonylamino-3,3-diphenylpropanoyl-(2-methoxyphenyl)methylamide], for which the inhibition at 10 µM was determined as 77%.

The experiment is the same for the next values; noted with them: displacement of 125I-substance P; human NK1R in COS or CHO cells.
Regarding `COc1cccc(C(Cc2ccccc2)C(N)COCc2cc(C(F)(F)F)cc(C(F)(F)F)c2)c1` (mixture of isomers) [70 (mixture of diastereomers), 2-Amino-1-((3,5-bis(trifluoromethyl)phenyl)methyloxy)-3-(3-methoxyphenyl)-4-phenylbutane], the IC50 turned out to be 160 nM.

As for `CC(NC(COCc1cc(C(F)(F)F)cc(C(F)(F)F)c1)C(c1ccccc1)c1ccccc1)C(N)=O` (single isomer, unassigned) [41 (diastereomer A), 1-((3',5'-Bis(trifluoromethyl)phenyl)methyloxy)-2-((1-(carboxamido)ethyl)ammonium)-3,3-diphenylpropane oxalate salt], the IC50 amounted to 0.4 nM.

In turn, `CC(NC(COCc1cc(C(F)(F)F)cc(C(F)(F)F)c1)C(c1ccccc1)c1ccccc1)C(N)=O` (single isomer, unassigned) [41 (diastereomer B), 1-((3',5'-Bis(trifluoromethyl)phenyl)methyloxy)-2-((1-(carboxamido)ethyl)ammonium)-3,3-diphenylpropane oxalate salt] showed a concentration for half-maximal inhibition (IC50) of 0.5 nM.

`CC(N[C@H](COCc1cc(C(F)(F)F)cc(C(F)(F)F)c1)C(c1ccccc1)c1ccccc1)C(N)=O` (single isomer, unassigned) [58 (diastereomer A)] yielded an IC50 of 0.4 nM.

Turning to `CC(N[C@H](COCc1cc(C(F)(F)F)cc(C(F)(F)F)c1)C(c1ccccc1)c1ccccc1)C(N)=O` (single isomer, unassigned) [58 (diastereomer B)], the IC50 worked out at 0.5 nM.

The compound `Cc1cc(C)cc(COCC(N)C(c2ccccc2)c2ccccc2)c1` (centres unmarked) [Example 1, 2-Ammoninm-1-((3,5-dimethylphenyl)methyloxy)-3,3-diphenylpronane tosylate salt] displayed an IC50 of 5.5 nM.

In turn, `Cc1cc(C)cc(COCC(C(c2ccccc2)c2ccccc2)N(C)C)c1` (centres unmarked) [Example 2, 2-Dimethylammonium-1-((3,5-dimethylphenyl)methyloxy)-3,3-diphenylpropane tosylate salt] displayed an IC50 of 2.4 nM.

As for `COc1ccccc1CNC(=O)C(N)C(c1ccccc1)c1ccccc1` (centres unmarked) [Example 4, 2-Ammonium-3,3-diphenylpropanoyl-(2-methoxyphenyl)methylamide tosylate salt], the IC50 worked out at 700 nM.

In the case of `Cc1cc(C)cc(COC(=O)C(N)C(c2ccccc2)c2ccccc2)c1` (centres unmarked) [Example 5, (3,5-Dimethylphenyl)methyl 2-ammonium-3,3-diphenylpropanoate tosylate salt], the IC50 stood at 160 nM.

`CNC(COCc1cc(C)cc(C)c1)C(c1ccccc1)c1ccccc1` (centres unmarked) [Example 6, 2-Methylammonium-1-((3,5-dimethylphenyl)methyloxy)-3,3-diphenylpropane oxalate salt] came in with an IC50 of 10 nM.

The compound `CCNC(COCc1cc(C)cc(C)c1)C(c1ccccc1)c1ccccc1` (centres unmarked) [Example 7, 2-Ethylammonium-1-((3,5-dimethylphenyl)methyloxy)-3,3-diphenylpropane oxalate salt] yielded an IC50 of 20 nM.

In the case of `CCCNC(COCc1cc(C)cc(C)c1)C(c1ccccc1)c1ccccc1` (centres unmarked) [Example 8, 2-Propylammonium-1-((3,5-dimethylphenyl)methyloxy)-3,3-diphenylpropane oxalate salt], the IC50 was determined as 90 nM.

As to `Cc1cc(C)cc(COCC(NCC2CC2)C(c2ccccc2)c2ccccc2)c1` (centres unmarked) [Example 9, 2-Cyclopropylmethylammonium-1-((3,5-dimethylphenyl)methyloxy)-3,3-diphenylpropane tosylate salt], the IC50 turned out to be 100 nM.

In turn, `C=CCNC(COCc1cc(C)cc(C)c1)C(c1ccccc1)c1ccccc1` (centres unmarked) [Example 10, 2-Allylammonium-1-((3,5-dimethylphenyl)methyloxy)-3,3-diphenylpropane oxalate salt] had an IC50 of 70 nM.

For `Cc1cc(C)cc(COCC(NCc2ccccc2)C(c2ccccc2)c2ccccc2)c1` (centres unmarked) [Example 11, 2-Benzylammonium-1-((3,5-dimethylphenyl)methyloxy)-3,3-diphenyl propane], the IC50 came to 320 nM.

On to `Cc1cc(C)cc(COCC(C(c2ccccc2)c2ccccc2)[N+](C)(C)C)c1` (centres unmarked) [Example 12, 1-((3,5-Dimethylphenyl)methyloxy)-3,3-diphenyl-2-(N,N,N-trimethylammonium)propane iodide salt], for which the IC50 was 19 nM.

In the case of `Cc1cc(C)cc(COCC(C(c2ccccc2)c2ccccc2)N2CCCC2)c1` (centres unmarked) [Example 13, 3,3-Diphenyl-1-((3,5-dimethylphenyl)methyloxy)-2-(1-pyrrolidinium)propane tosylate salt], the IC50 was 20 nM.

Turning to `Cc1cc(C)cc(COCC(C(c2ccccc2)c2ccccc2)N2CCCCC2)c1` (centres unmarked) [Example 14, 3,3-Diphenyl-1-((3,5-dimethylphenyl)methyloxy)-2-(piperidin-1-yl)propane hydrochloride salt], the IC50 amounted to 70 nM.

As for `Cc1cc(C)cc(COCC(C(c2ccccc2)c2ccccc2)N2CCOCC2)c1` (centres unmarked) [Example 15, 3,3-Diphenyl-1-((3,5-dimethylphenyl)methyloxy)-2-(4-morpholino)propane], the IC50 was determined as 100 nM.

For `NC(COCc1cc(Cl)cc(Cl)c1)C(c1ccccc1)c1ccccc1` (centres unmarked) [Example 18, 2-Ammouinm-1-((3,5-dichlorophenyl)methyloxy)-3,3-diphenylpropane tosylate salt], the IC50 was 22 nM.

Turning to `NC(COCc1cccc(Cl)c1)C(c1ccccc1)c1ccccc1` (centres unmarked) [Example 19, 2-Ammonium-1-((3-chlorophenyl)methyloxy)-3,3-diphenylpropane tosylate salt], the IC50 amounted to 120 nM.

`COC(=O)CNC(COCc1cc(C)cc(C)c1)C(c1ccccc1)c1ccccc1` (centres unmarked) [Example 20, 2-(N-(Carbomethoxymethyl)ammonium)-1-((3,5-dimethylphenyl)methyloxy)-3,3-diphenylpropane tosylate salt] yielded an IC50 of 40 nM.

Compound `Cc1cc(C)cc(COCC(NCC(N)=O)C(c2ccccc2)c2ccccc2)c1` (centres unmarked) [Example 21, 2-(((Carboxamido)methyl)amino)-1-((3,5-dimethylphenyl)methyloxy)-3,3-diphenylpropane] yielded an IC50 of 3 nM.

Compound `Cc1cc(C)cc(COCC(NCCO)C(c2ccccc2)c2ccccc2)c1` (centres unmarked) [Example 22, 2-(N-(2-Hydroxyethyl)ammonium)-1-((3,5-dimethylphenyl)methyloxy)-3,3-diphenylpropane oxalate salt] came in with an IC50 of 45 nM.

For the compound `Cc1cc(C)cc(COCC(NC=O)C(c2ccccc2)c2ccccc2)c1` (centres unmarked) [Example 23, 2-Formamido-1-((3,5-dimethylphenyl)methyloxy)-3,3-diphenylpronane], the IC50 was determined as 35 nM.

Compound `NC(COCc1cccc([N+](=O)[O-])c1)C(c1ccccc1)c1ccccc1` (centres unmarked) [Example 24, 2-Ammonium-1-((3-nitrophenyl)methyloxy)-3,3-diphenylpropane oxalate salt] displayed an IC50 of 400 nM.

In turn, `NC(COCc1ccccc1)C(c1ccccc1)c1ccccc1` (centres unmarked) [Example 25, 2-Ammonium-1-benzyloxy-3,3-diphenylpropane oxalate salt] displayed an IC50 of 600 nM.

Compound `NC(COCc1cccc(I)c1)C(c1ccccc1)c1ccccc1` (centres unmarked) [Example 26, oxalate salt] yielded an IC50 of 140 nM.

For `COc1cc(COCC(N)C(c2ccccc2)c2ccccc2)cc(OC)c1` (centres unmarked) [Example 27, 2-Ammonium-1-((3,5-dimethoxyphenyl)methyloxy-3,3-diphenylpropane oxalate salt], the IC50 was 70 nM.

The compound `Cc1ccc(C)c(COCC(N)C(c2ccccc2)c2ccccc2)c1` (centres unmarked) [Example 28, 2-Ammonium-1-((2,5-dimethylphenyl)methyloxy)-3,3-diphenylpropane oxalate salt] yielded an IC50 of 300 nM.

(Values after patent US5629347A, “Aromatic compounds, pharmaceutical compositions containing them and their use in therapy” (Merck Sharp & Dohme Ltd., priority 1991, dated 1997).)
